Data taken from ChEMBL document CHEMBL5634076, “Optimization of pyridylpiperazine-based inhibitors of the Escherichia coli AcrAB-TolC efflux pump” (Eur J Med Chem, 2023).
Converted amounts (≈) assume the structure as drawn.

What was measured:
[1] = molecular target: T1, Multidrug efflux pump subunit AcrB (Escherichia coli (strain K12)) (UniProt P31224); experiment: Inhibition of AcrB in Escherichia coli BW25113 assessed as potentiation of pyridomycin-induced antibacterial activity incubated for 20 hrs by resazurin microtitre assay
T1 sequence (whole entry): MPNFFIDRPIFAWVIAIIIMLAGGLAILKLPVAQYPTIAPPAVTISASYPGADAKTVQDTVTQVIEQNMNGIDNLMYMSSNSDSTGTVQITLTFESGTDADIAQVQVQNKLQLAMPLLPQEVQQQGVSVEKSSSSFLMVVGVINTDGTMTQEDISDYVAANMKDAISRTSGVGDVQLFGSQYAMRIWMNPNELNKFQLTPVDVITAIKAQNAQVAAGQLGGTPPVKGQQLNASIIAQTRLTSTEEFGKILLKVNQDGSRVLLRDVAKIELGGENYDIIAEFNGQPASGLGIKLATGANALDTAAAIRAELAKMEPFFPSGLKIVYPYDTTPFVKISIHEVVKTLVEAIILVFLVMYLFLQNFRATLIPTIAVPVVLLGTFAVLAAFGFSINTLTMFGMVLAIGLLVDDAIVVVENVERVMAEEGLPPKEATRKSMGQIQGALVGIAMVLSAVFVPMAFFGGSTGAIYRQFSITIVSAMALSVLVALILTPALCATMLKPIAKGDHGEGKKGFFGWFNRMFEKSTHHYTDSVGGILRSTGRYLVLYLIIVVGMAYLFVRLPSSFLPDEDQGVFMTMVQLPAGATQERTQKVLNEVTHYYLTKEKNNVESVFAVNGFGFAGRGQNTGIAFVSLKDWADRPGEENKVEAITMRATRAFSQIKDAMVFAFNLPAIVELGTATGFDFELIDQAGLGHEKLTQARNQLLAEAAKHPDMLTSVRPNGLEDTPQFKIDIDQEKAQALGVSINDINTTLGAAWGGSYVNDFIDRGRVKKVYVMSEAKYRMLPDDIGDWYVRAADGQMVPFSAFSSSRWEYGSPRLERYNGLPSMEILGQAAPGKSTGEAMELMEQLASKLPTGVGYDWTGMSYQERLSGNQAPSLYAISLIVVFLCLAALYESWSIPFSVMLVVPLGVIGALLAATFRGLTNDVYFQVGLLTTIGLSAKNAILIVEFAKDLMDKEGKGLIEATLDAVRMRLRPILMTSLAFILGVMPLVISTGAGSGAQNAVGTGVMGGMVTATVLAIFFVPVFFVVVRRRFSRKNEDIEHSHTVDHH

Escherichia coli [2] = experiment: Antibacterial activity against Escherichia coli BW25113 assessed as reduction in bacterial growth incubated for 20 hrs by resazurin microtitre assay; format: functional
Escherichia coli [3] = experiment: Antibacterial activity against Escherichia coli BW25113 assessed as reduction in bacterial growth incubated up to 18 hrs by resazurin microtitre assay; format: functional
Escherichia coli [4] = experiment: Inhibition of AcrB Asp951Asn mutant in Escherichia coli BW25113 assessed as potentiation of pyridomycin-induced antibacterial activity incubated for 20 hrs by resazurin microtitre assay
Escherichia coli [5] = experiment: Selectivity ratio of EC90 for inhibition of AcrB Glu947Gln mutant in Escherichia coli BW25113 to inhibition of AcrB in Escherichia coli BW25113 incubated for 20 hrs by resazurin microtitre assay
Escherichia coli [6] = experiment: Selectivity ratio of EC90 for inhibition of AcrB Asp951Asn mutant in Escherichia coli BW25113 to inhibition of AcrB in Escherichia coli BW25113 incubated for 20 hrs by resazurin microtitre assay
Escherichia coli [7] = experiment: Inhibition of AcrB Glu947Gln mutant in Escherichia coli BW25113 assessed as potentiation of pyridomycin-induced antibacterial activity incubated for 20 hrs by resazurin microtitre assay
[8] = molecular target: T1, Multidrug efflux pump subunit AcrB (Escherichia coli (strain K12)); experiment: Potency index, ratio of BDM73185 EC90 to test compound EC90 for inhibition of AcrAB-TolC in Escherichia coli BW25113

Row | Structure (SMILES) | EC90 [1] | MIC (Escherichia coli [2]) | also measured
1 | Cc1nc(-c2cnc(N3CCNCC3)c(Cl)c2)no1 | 78 µM | > 250 µM | 
2 | O=C1CN(c2ncc(C(F)(F)F)cc2Cl)CCN1 | > 500 µM | > 250 µM | 
3 | FC(F)(F)c1cnc(C2=CCNCC2)c(Cl)c1 | > 250 µM | > 250 µM | 
4 | FC(F)(F)c1cc(I)cnc1N1CCNCC1 | 94 µM | > 250 µM | 
5 | O=C(OCc1ccccc1)c1cnc(N2CCNCC2)c(Cl)c1 | 156 µM | > 250 µM | 
6 | O=C(O)c1cn(C2CC2)c2cc(N3CCNCC3)c(F)cc2c1=O [CIPROFLOXACIN] |  |  | MIC95 (Escherichia coli [2]): 0.01 µg/mL (≈ 0.0302 µM)
7 | NC1CCN(c2ncc(C(F)(F)F)cc2Cl)CC1 | 500 µM | > 250 µM | 
8 | CC(=O)O[C@H]1C[C@@]2(C)[C@@H](C[C@@H](O)[C@H]3[C@@]4(C)CC[C@@H](O)[C@@H](C)[C@@H]4CC[C@@]32C)/C1=C(\CCC=C(C)C)C(=O)O [FUSIDIC ACID] |  |  | MIC95 (Escherichia coli [2]): > 128 µg/mL
9 | CC(=O)Nc1cnc(N2CCNCC2)c(Cl)c1 | 187 µM | > 250 µM | 
10 | CCN1CCN(C(=O)N[C@@H](C(=O)N[C@@H]2C(=O)N3[C@@H]2SC(C)(C)[C@@H]3C(=O)O)c2ccccc2)C(=O)C1=O [PIPERACILLIN] |  |  | MIC95 (Escherichia coli [3]): 4 µg/mL (≈ 7.73 µM)
11 | C[C@@H]1CNCCN1c1ncc(C(F)(F)F)cc1Cl | > 500 µM | > 250 µM | 
12 | FC(F)(F)c1ccc(N2CCNCC2)nc1 | > 500 µM | > 250 µM | 
13 | NCc1nc(-c2cnc(N3CCNCC3)c(Cl)c2)no1 | 81 µM | > 250 µM | EC90 (Escherichia coli [4]): 250 µM; Ratio (Escherichia coli [5]): 3; Ratio (Escherichia coli [6]): 3; EC90 (Escherichia coli [7]): 250 µM
14 | CO[C@@H]1[C@@H](OC(N)=O)[C@@H](O)[C@H](Oc2ccc3c(O)c(NC(=O)c4ccc(O)c(CC=C(C)C)c4)c(=O)oc3c2C)OC1(C)C [NOVOBIOCIN] |  |  | MIC95 (Escherichia coli [2]): 80 µg/mL (≈ 131 µM)
15 | Cc1onc(-c2ccccc2)c1C(=O)N[C@@H]1C(=O)N2[C@@H]1SC(C)(C)[C@@H]2C(=O)O [OXACILLIN] |  |  | MIC95 (Escherichia coli [2]): > 128 µg/mL
16 | NCc1cccc(NC(=O)c2cnc(N3CCNCC3)c(Cl)c2)c1 | 156 µM | > 250 µM | 
17 | O=C(CBr)c1cnc(N2CCN(C(=O)OCC(Cl)(Cl)Cl)CC2)c(Cl)c1 |  | > 250 µM | 
18 | CC[C@H]1OC(=O)[C@H](C)[C@@H](O[C@H]2C[C@@](C)(OC)[C@@H](O)[C@H](C)O2)[C@H](C)[C@@H](O[C@@H]2O[C@H](C)C[C@H](N(C)C)[C@H]2O)[C@](C)(O)C[C@@H](C)C(=O)[C@H](C)[C@@H](O)[C@]1(C)O [ERYTHROMYCIN] |  |  | MIC95 (Escherichia coli [3]): 128 µg/mL (≈ 174 µM)
19 | NCCOC(=O)c1cnc(N2CCNCC2)c(Cl)c1 | > 250 µM | > 250 µM | 
20 | NCCc1ccc(NC(=O)c2cnc(N3CCNCC3)c(Cl)c2)cc1 | 187 µM | > 250 µM | 
21 | NCCCc1nc(-c2cnc(N3CCNCC3)c(Cl)c2)no1 | 21 µM | > 250 µM | EC90 (Escherichia coli [4]): > 250 µM; Ratio (Escherichia coli [5]): > 12; Ratio (Escherichia coli [6]): > 12; EC90 (Escherichia coli [7]): > 250 µM
22 | CCOC(=O)c1cnc(N2CCNCC2)c(Cl)c1 | 12 µM | > 250 µM | Ratio [8]: 3
23 | Cc1nnc(-c2cnc(N3CCNCC3)c(Cl)c2)o1 | 187 µM | > 250 µM | 
24 | O=C(Oc1cccc(CO)c1)c1cnc(N2CCNCC2)c(Cl)c1 | 26 µM | > 250 µM | EC90 (Escherichia coli [4]): 62 µM; Ratio (Escherichia coli [5]): 2.4; Ratio (Escherichia coli [6]): 2.4; EC90 (Escherichia coli [7]): 62 µM

Row | Structure (SMILES) | EC90 [1] | MIC (Escherichia coli [2]) | also measured
25 | NCCNc1ncc(C(F)(F)F)cc1Cl | > 500 µM | > 250 µM | 
26 | CNC(=O)c1cnc(N2CCNCC2)c(Cl)c1 | > 250 µM | > 250 µM | 
27 | COC(=O)c1cnc(N2CCNCC2)c(Cl)c1 | 20 µM | > 250 µM | Ratio [8]: 3
28 | OCc1cnc(N2CCNCC2)c(Cl)c1 | > 250 µM | > 250 µM | 
29 | CS(=O)(=O)Nc1cnc(N2CCNCC2)c(Cl)c1 | > 250 µM | > 250 µM | 
30 | CC(=O)NC[C@H]1CN(c2ccc(N3CCOCC3)c(F)c2)C(=O)O1 [LINEZOLID] |  |  | MIC95 (Escherichia coli [2]): > 128 µg/mL
31 | Cc1nc(-c2cnc(N3CCNCC3)c(Cl)c2)co1 | > 250 µM | > 250 µM | 
32 | O=C(N[C@H](CO)[C@H](O)c1ccc([N+](=O)[O-])cc1)C(Cl)Cl [CHLORAMPHENICOL] |  |  | MIC95 (Escherichia coli [2]): 8 µg/mL (≈ 24.8 µM)
33 | NCCc1ccc(C(=O)Nc2cnc(N3CCNCC3)c(Cl)c2)cc1 | 47 µM | > 250 µM | 
34 | C[C@@H]1CN(c2ncc(C(F)(F)F)cc2Cl)C[C@H](C)N1 | > 500 µM | > 250 µM | 
35 | FC(F)(F)c1cnc(N2CCNCC2)c(Br)c1 | 16 µM | > 250 µM | 
36 | O=C(OCCc1ccccc1)c1cnc(N2CCNCC2)c(Cl)c1 | 62 µM | > 250 µM | 
37 | O=C(Oc1ccccc1)c1cnc(N2CCNCC2)c(Cl)c1 | 23 µM | > 250 µM | 
38 | NCc1cccc(COc2cnc(N3CCNCC3)c(Cl)c2)c1 | 10 µM | > 250 µM | EC90 (Escherichia coli [4]): 250 µM; Ratio (Escherichia coli [5]): > 25; Ratio (Escherichia coli [6]): 25; EC90 (Escherichia coli [7]): > 250 µM
39 | Cc1nc(-c2cnc(N3CCNCC3)c(Cl)c2)cs1 | 187 µM | > 250 µM | 
40 | O=C(O)c1cnc(N2CCNCC2)c(Cl)c1 |  | > 250 µM | 
41 | CC(C)(C)OC(=O)N1CCN(c2ncc(N)cc2Cl)CC1 |  | > 250 µM | 
42 | NCc1cccc(OCc2cnc(N3CCNCC3)c(Cl)c2)c1 | 23 µM | > 250 µM | EC90 (Escherichia coli [4]): > 250 µM; Ratio (Escherichia coli [5]): > 11; Ratio (Escherichia coli [6]): > 11; EC90 (Escherichia coli [7]): > 250 µM
43 | C[C@H]1CNCCN1c1ncc(C(F)(F)F)cc1Cl | > 500 µM | > 250 µM | 
44 | NCCc1ccc(OC(=O)c2cnc(N3CCNCC3)c(Cl)c2)cc1 | 3 µM | > 250 µM | EC90 (Escherichia coli [4]): 23 µM; Ratio (Escherichia coli [5]): 3; Ratio (Escherichia coli [6]): 8; EC90 (Escherichia coli [7]): 8 µM
45 | FC(F)(F)c1cnc(N2CCCNCC2)c(Cl)c1 | > 500 µM | > 250 µM | 
46 | O=C(OCCCc1ccccc1)c1cnc(N2CCNCC2)c(Cl)c1 | 250 µM | 250 µM (≈ 90 µg/mL) | 
47 | CC(C)(C)OC(=O)N1CCN(c2ncc(/C(N)=N/O)cc2Cl)CC1 |  | > 250 µM | 
48 | OCc1cc(C(F)(F)F)cnc1N1CCNCC1 | > 500 µM | > 250 µM | 
